Data published in the supplement of paper PMC10307832.

Experiments:
Experiment in all cases: relative viability (nuclei count vs DMSO), 5 days (fraction); higher = more cells survive
NCI-H460 = system: NCI-H460
Outline: (§1)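 Five library-drug doses in √10 steps were combined with a fixed anchor-drug dose, or a single drug was given alone, by pin tool to lung cancer cell lines in 1536-well plates the day after seeding. Nuclei were stained and counted after 5 days. Relative viability is the nuclei count in treated wells over that in vehicle wells, taken as the median of duplicate plates.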

RERF-LC-KJ = system: RERF-LC-KJ
Outline: as §1

NCI-H650 = system: NCI-H650
Outline: as §1

NCI-H1793 = system: NCI-H1793
Outline: as §1

SW 1573 = system: SW 1573
Outline: as §1

NCI-H520 = system: NCI-H520
Outline: as §1

NCI-H838 = system: NCI-H838
Outline: as §1

EKVX = system: EKVX
Outline: as §1

NCI-H2347 = system: NCI-H2347
Outline: as §1

NCI-H1666 = system: NCI-H1666
Outline: as §1

A-427 = system: A-427
Outline: as §1

LCLC-97TM1 = system: LCLC-97TM1
Outline: as §1

NCI-H1993 = system: NCI-H1993
Outline: as §1

NCI-H23 = system: NCI-H23
Outline: as §1

NCI-H1915 = system: NCI-H1915
Outline: as §1

LC-2-ad = system: LC-2-ad
Outline: as §1

BEN = system: BEN
Outline: as §1

LU99A = system: LU99A
Outline: as §1

NCI-H1355 = system: NCI-H1355
Outline: as §1

NCI-H1650 = system: NCI-H1650
Outline: as §1

PC-3 [JPC-3] = system: PC-3 [JPC-3]
Outline: as §1

NCI-H2228 = system: NCI-H2228
Outline: as §1

LOU-NH91 = system: LOU-NH91
Outline: as §1

`O=C(O)CCCCC(CCSCc1ccccc1)SCc1ccccc1` (stereo not given) [CPI-613] + N=C(N)NC(=N)NCCc1ccccc1 [Phenformin] (partner 250 µM) was tested, and the relative viability (NCI-H460; first compound 5 µM) was 0.521, the relative viability (NCI-H460; first compound 15.81 µM) was 0.449 and the relative viability (NCI-H460; first compound 50 µM) was 0.434. For the same molecule, the relative viability (NCI-H460; first compound 158.11 µM) was 0.115, the relative viability (NCI-H460; first compound 500 µM) was 0.0156 and the relative viability (RERF-LC-KJ; first compound 5 µM) was 0.42. For the same molecule, the relative viability (RERF-LC-KJ; first compound 15.81 µM) was 0.409, the relative viability (RERF-LC-KJ; first compound 50 µM) was 0.406 and the relative viability (RERF-LC-KJ; first compound 158.11 µM) was 0.134. For the same molecule, the relative viability (RERF-LC-KJ; first compound 500 µM) was 0.0945, the relative viability (NCI-H650; first compound 5 µM) was 0.508 and the relative viability (NCI-H650; first compound 15.81 µM) was 0.412. For the same molecule, the relative viability (NCI-H650; first compound 50 µM) was 0.448, the relative viability (NCI-H650; first compound 158.11 µM) was 0.371 and the relative viability (NCI-H650; first compound 500 µM) was 0.333. The relative viability (NCI-H1793; first compound 5 µM) was 0.314, the relative viability (NCI-H1793; first compound 15.81 µM) was 0.319 and the relative viability (NCI-H1793; first compound 50 µM) was 0.45. The relative viability (NCI-H1793; first compound 158.11 µM) was 0.194, the relative viability (NCI-H1793; first compound 500 µM) was 0.0229 and the relative viability (SW 1573; first compound 5 µM) was 0.347. The relative viability (SW 1573; first compound 15.81 µM) was 0.357, the relative viability (SW 1573; first compound 50 µM) was 0.304 and the relative viability (SW 1573; first compound 158.11 µM) was 0.0746. For the same molecule, the relative viability (SW 1573; first compound 500 µM) was 0.0663, the relative viability (NCI-H520; first compound 5 µM) was 0.667 and the relative viability (NCI-H520; first compound 15.81 µM) was 0.433. It also gave a relative viability (NCI-H520; first compound 50 µM) of 0.634, a relative viability (NCI-H520; first compound 158.11 µM) of 0.446 and a relative viability (NCI-H520; first compound 500 µM) of 0.35. The relative viability (NCI-H838; first compound 5 µM) was 0.586, the relative viability (NCI-H838; first compound 15.81 µM) was 0.481 and the relative viability (NCI-H838; first compound 50 µM) was 0.558. The relative viability (NCI-H838; first compound 158.11 µM) was 0.261, the relative viability (NCI-H838; first compound 500 µM) was 0.0688 and the relative viability (EKVX; first compound 5 µM) was 0.247. It also gave a relative viability (EKVX; first compound 15.81 µM) of 0.223, a relative viability (EKVX; first compound 50 µM) of 0.212 and a relative viability (EKVX; first compound 158.11 µM) of 0.164. For the same molecule, the relative viability (EKVX; first compound 500 µM) was 0.213, the relative viability (NCI-H2347; first compound 5 µM) was 0.441 and the relative viability (NCI-H2347; first compound 15.81 µM) was 0.352. It also gave a relative viability (NCI-H2347; first compound 50 µM) of 0.461, a relative viability (NCI-H2347; first compound 158.11 µM) of 0.471 and a relative viability (NCI-H2347; first compound 500 µM) of 0.378. It also gave a relative viability (NCI-H1666; first compound 5 µM) of 0.56, a relative viability (NCI-H1666; first compound 15.81 µM) of 0.539 and a relative viability (NCI-H1666; first compound 50 µM) of 0.534. The relative viability (NCI-H1666; first compound 158.11 µM) was 0.26, the relative viability (NCI-H1666; first compound 500 µM) was 0.251 and the relative viability (A-427; first compound 5 µM) was 0.279. It also gave a relative viability (A-427; first compound 15.81 µM) of 0.255, a relative viability (A-427; first compound 50 µM) of 0.267 and a relative viability (A-427; first compound 158.11 µM) of 0.178. It also gave a relative viability (A-427; first compound 500 µM) of 0.1, a relative viability (LCLC-97TM1; first compound 5 µM) of 0.446 and a relative viability (LCLC-97TM1; first compound 15.81 µM) of 0.325. The relative viability (LCLC-97TM1; first compound 50 µM) was 0.405, the relative viability (LCLC-97TM1; first compound 158.11 µM) was 0.371 and the relative viability (LCLC-97TM1; first compound 500 µM) was 0.0437. The relative viability (NCI-H1993; first compound 5 µM) was 0.492, the relative viability (NCI-H1993; first compound 15.81 µM) was 0.532 and the relative viability (NCI-H1993; first compound 50 µM) was 0.492. The relative viability (NCI-H1993; first compound 158.11 µM) was 0.473, the relative viability (NCI-H1993; first compound 500 µM) was 0.42 and the relative viability (NCI-H23; first compound 5 µM) was 0.819. It also gave a relative viability (NCI-H23; first compound 15.81 µM) of 0.746, a relative viability (NCI-H23; first compound 50 µM) of 0.803 and a relative viability (NCI-H23; first compound 158.11 µM) of 0.358. It also gave a relative viability (NCI-H23; first compound 500 µM) of 0.0072, a relative viability (NCI-H1915; first compound 5 µM) of 0.374 and a relative viability (NCI-H1915; first compound 15.81 µM) of 0.372. For the same molecule, the relative viability (NCI-H1915; first compound 50 µM) was 0.354, the relative viability (NCI-H1915; first compound 158.11 µM) was 0.339 and the relative viability (NCI-H1915; first compound 500 µM) was 0.0398. The relative viability (LC-2-ad; first compound 5 µM) was 0.569, the relative viability (LC-2-ad; first compound 15.81 µM) was 0.558 and the relative viability (LC-2-ad; first compound 50 µM) was 0.567. For the same molecule, the relative viability (LC-2-ad; first compound 158.11 µM) was 0.396, the relative viability (LC-2-ad; first compound 500 µM) was 0.0712 and the relative viability (BEN; first compound 5 µM) was 0.242. The relative viability (BEN; first compound 15.81 µM) was 0.251, the relative viability (BEN; first compound 50 µM) was 0.255 and the relative viability (BEN; first compound 158.11 µM) was 0.25. The relative viability (BEN; first compound 500 µM) was 0.215, the relative viability (LU99A; first compound 5 µM) was 0.801 and the relative viability (LU99A; first compound 15.81 µM) was 0.793. For the same molecule, the relative viability (LU99A; first compound 50 µM) was 0.823, the relative viability (LU99A; first compound 158.11 µM) was 0.733 and the relative viability (LU99A; first compound 500 µM) was 0.0986. It also gave a relative viability (NCI-H1355; first compound 5 µM) of 0.423, a relative viability (NCI-H1355; first compound 15.81 µM) of 0.412 and a relative viability (NCI-H1355; first compound 50 µM) of 0.411. For the same molecule, the relative viability (NCI-H1355; first compound 158.11 µM) was 0.347, the relative viability (NCI-H1355; first compound 500 µM) was 0.105 and the relative viability (NCI-H1650; first compound 5 µM) was 0.403. It also gave a relative viability (NCI-H1650; first compound 15.81 µM) of 0.408, a relative viability (NCI-H1650; first compound 50 µM) of 0.366 and a relative viability (NCI-H1650; first compound 158.11 µM) of 0.136. For the same molecule, the relative viability (NCI-H1650; first compound 500 µM) was 0.0086, the relative viability (PC-3 [JPC-3]; first compound 5 µM) was 0.474 and the relative viability (PC-3 [JPC-3]; first compound 15.81 µM) was 0.495. It also gave a relative viability (PC-3 [JPC-3]; first compound 50 µM) of 0.494, a relative viability (PC-3 [JPC-3]; first compound 158.11 µM) of 0.465 and a relative viability (PC-3 [JPC-3]; first compound 500 µM) of 0.0769. The relative viability (NCI-H2228; first compound 5 µM) was 0.344, the relative viability (NCI-H2228; first compound 15.81 µM) was 0.33 and the relative viability (NCI-H2228; first compound 50 µM) was 0.222. It also gave a relative viability (NCI-H2228; first compound 158.11 µM) of 0.208, a relative viability (NCI-H2228; first compound 500 µM) of 0.0339 and a relative viability (LOU-NH91; first compound 5 µM) of 0.784. The relative viability (LOU-NH91; first compound 15.81 µM) was 0.591, the relative viability (LOU-NH91; first compound 50 µM) was 0.652 and the relative viability (LOU-NH91; first compound 158.11 µM) was 0.504. It also gave a relative viability (LOU-NH91; first compound 500 µM) of 0.526.
